Series [1] concerns the target T1, hERG (Kv11.1, KCNH2) (Homo sapiens, UniProt Q12809). Kind of series: in vitro.
Description: MMV: Malaria Box compounds were tested for inhibition of the human ether a go-go related gene (hERG), Kv11.1 channel, using IonWorks 384-well patch clamp electrophysiology at 1.1uM (3 independent assay plates up to 12 cells per concentration).
In series [2] the target is T1, hERG (Kv11.1, KCNH2). Kind of series: in vitro. The source holds these as a separate data set.
Description: MMV: Malaria Box compounds were tested for inhibition of the human ether a go-go related gene (hERG), Kv11.1 channel, using IonWorks 384-well patch clamp electrophysiology at 11.1uM (3 independent assay plates up to 12 cells per concentration).

The source made the active and inactive calls. No rule for the calls is given here.

One may read the inhibition as the relative decrease from the control value, in per cent.

T1 sequence (Q12809 whole entry): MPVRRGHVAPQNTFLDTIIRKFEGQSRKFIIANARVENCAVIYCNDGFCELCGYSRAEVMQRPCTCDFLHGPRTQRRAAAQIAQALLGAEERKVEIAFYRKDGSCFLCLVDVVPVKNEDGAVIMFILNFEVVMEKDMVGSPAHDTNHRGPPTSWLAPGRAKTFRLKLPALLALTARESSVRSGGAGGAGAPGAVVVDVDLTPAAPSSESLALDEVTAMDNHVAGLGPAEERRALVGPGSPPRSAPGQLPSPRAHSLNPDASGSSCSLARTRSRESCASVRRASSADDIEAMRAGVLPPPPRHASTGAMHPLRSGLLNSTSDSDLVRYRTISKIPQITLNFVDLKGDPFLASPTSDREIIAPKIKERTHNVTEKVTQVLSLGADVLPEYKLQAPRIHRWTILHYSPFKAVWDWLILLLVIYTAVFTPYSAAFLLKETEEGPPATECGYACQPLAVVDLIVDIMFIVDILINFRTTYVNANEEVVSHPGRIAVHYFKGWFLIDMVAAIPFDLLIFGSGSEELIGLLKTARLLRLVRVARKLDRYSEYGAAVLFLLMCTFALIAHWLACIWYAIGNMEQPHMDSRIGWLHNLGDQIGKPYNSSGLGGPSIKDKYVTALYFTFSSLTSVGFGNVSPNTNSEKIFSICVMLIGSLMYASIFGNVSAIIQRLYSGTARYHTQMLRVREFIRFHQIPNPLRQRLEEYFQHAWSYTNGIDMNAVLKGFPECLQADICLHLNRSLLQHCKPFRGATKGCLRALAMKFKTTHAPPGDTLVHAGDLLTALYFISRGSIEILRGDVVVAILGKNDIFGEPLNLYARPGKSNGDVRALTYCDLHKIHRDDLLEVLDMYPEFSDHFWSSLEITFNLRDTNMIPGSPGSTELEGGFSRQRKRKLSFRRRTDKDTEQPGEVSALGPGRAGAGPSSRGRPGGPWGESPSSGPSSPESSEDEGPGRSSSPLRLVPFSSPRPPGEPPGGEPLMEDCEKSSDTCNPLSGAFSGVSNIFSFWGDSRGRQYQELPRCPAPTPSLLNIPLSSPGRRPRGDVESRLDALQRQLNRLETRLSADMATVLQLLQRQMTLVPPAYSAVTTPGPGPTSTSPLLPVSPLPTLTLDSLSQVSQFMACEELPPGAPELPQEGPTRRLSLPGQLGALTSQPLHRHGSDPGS

On to `OC1=C2C(=Nc3ccccc3SC2c2ccccc2)c2ccccc21` (stereo not drawn), for which the inhibition at 1.1 µM at hERG (Kv11.1, KCNH2) [1] is 15%. In addition, on hERG (Kv11.1, KCNH2) [2], the inhibition at 11.1 µM is 16% (inactive).

Regarding `O=C(Nc1ccc(C23CC4CC(CC(c5ccccc5)(C4)C2)C3)cc1)c1cccs1`, the inhibition at 1.1 µM at hERG (Kv11.1, KCNH2) [1] is 4%. Also, at hERG (Kv11.1, KCNH2) [2], the inhibition at 11.1 µM is 3% (inactive).

`CCOc1cc2c(cc1OCC)C(c1cc(OC)c(O)cc1Cl)NCC2` (stereo not drawn): on hERG (Kv11.1, KCNH2) [1], the inhibition at 1.1 µM was found to be 10%. In addition, at hERG (Kv11.1, KCNH2) [2], the inhibition at 11.1 µM came to 30%.

As for `O=C1c2ccccc2-c2nnc(-c3ccc(Br)cc3)cc21`, the inhibition at 1.1 µM against hERG (Kv11.1, KCNH2) [1] is -3%. Moreover, on hERG (Kv11.1, KCNH2) [2], the inhibition at 11.1 µM is 2% (inactive).

Consider `CCOC(=O)C1=C(C)N=c2sc(=Cc3cc(Cl)ccc3O)c(=O)n2C1c1ccc(OC)cc1` (stereo not drawn), for which the inhibition at 1.1 µM against hERG (Kv11.1, KCNH2) [1] came out at 2%. Moreover, the inhibition at 11.1 µM on hERG (Kv11.1, KCNH2) [2] was 2% (inactive).

For the molecule `COc1ccc(C=C2SC(Nc3ccc(F)cc3)=NC2=O)c(OC)c1`, the inhibition at 1.1 µM at hERG (Kv11.1, KCNH2) [1] came to 44%. For the same molecule, the inhibition at 11.1 µM at hERG (Kv11.1, KCNH2) [2] is 96% (active).

`COc1ccc2c(=O)cc(C(Cl)(Cl)Cl)oc2c1`: the inhibition at 1.1 µM at hERG (Kv11.1, KCNH2) [1] was determined as 6%. The inhibition at 11.1 µM at hERG (Kv11.1, KCNH2) [2] was 9% (inactive).

As for `Cc1cc(Nc2ccc(OCc3ccccc3)cc2)nc2cc(O)ccc12`, on hERG (Kv11.1, KCNH2) [1], the inhibition at 1.1 µM is -2%. Also, on hERG (Kv11.1, KCNH2) [2], the inhibition at 11.1 µM was 108% (active).

Consider `CCOC(=O)C1CCN(C(=O)CN2C(=O)c3ccccc3C2c2c[nH]c3ccccc23)CC1` (stereo not drawn), for which, at hERG (Kv11.1, KCNH2) [1], the inhibition at 1.1 µM is -9%. Further, the inhibition at 11.1 µM at hERG (Kv11.1, KCNH2) [2] was 18% (inactive).

Take `CCOc1cccc2sc(N(Cc3cccnc3)C(=O)C3CCCCC3)nc12`: the inhibition at 1.1 µM against hERG (Kv11.1, KCNH2) [1] came to 8%. Further, the inhibition at 11.1 µM on hERG (Kv11.1, KCNH2) [2] was 54% (active).

On to `CC(C)CCNCC(O)Cn1c2ccccc2c2ccccc21` (stereo not drawn), for which the inhibition at 1.1 µM against hERG (Kv11.1, KCNH2) [1] amounted to 2%. The inhibition at 11.1 µM on hERG (Kv11.1, KCNH2) [2] is 61% (active).

Take `CCC(C)NCC(O)(c1ccc(Cl)cc1)c1ccc(Cl)cc1` (stereo not drawn): at hERG (Kv11.1, KCNH2) [1], the inhibition at 1.1 µM amounted to 24%. Besides, at hERG (Kv11.1, KCNH2) [2], the inhibition at 11.1 µM was 89% (active).

`CCOC(=O)c1cnc2ccc(Cl)cc2c1NCCCN(C)C`: the inhibition at 1.1 µM against hERG (Kv11.1, KCNH2) [1] was 21%. Also, on hERG (Kv11.1, KCNH2) [2], the inhibition at 11.1 µM was 85% (active).

Turning to `Nc1ccc(-c2nc3cc(Cc4ccc5[nH]c(-c6ccc(N)cc6)nc5c4)ccc3[nH]2)cc1`, the inhibition at 1.1 µM against hERG (Kv11.1, KCNH2) [1] was determined as 12%. Moreover, at hERG (Kv11.1, KCNH2) [2], the inhibition at 11.1 µM is 21% (inactive).

For the molecule `CCCCCCc1cc(O)c2c3c(c(=O)oc2c1)CCC(C)C3` (stereo not drawn), the inhibition at 1.1 µM against hERG (Kv11.1, KCNH2) [1] is -5%. For the same molecule, the inhibition at 11.1 µM on hERG (Kv11.1, KCNH2) [2] is -7% (inactive).

Turning to `O=C(CSc1ccc2nnc(-c3cccc(F)c3)n2n1)Nc1ccc2c(c1)OCO2`, the inhibition at 1.1 µM on hERG (Kv11.1, KCNH2) [1] was 5%. Further, on hERG (Kv11.1, KCNH2) [2], the inhibition at 11.1 µM is 3% (inactive).

For `CC(=O)c1sc(NC(=O)Nc2ccc(C)cc2C)nc1C`, at hERG (Kv11.1, KCNH2) [1], the inhibition at 1.1 µM worked out at 7%. Further, the inhibition at 11.1 µM against hERG (Kv11.1, KCNH2) [2] came to 38%.

Turning to `CC(C)(C)CC(C)(C)NCC(O)COc1ccc(Cl)cc1Cl` (stereo not drawn), on hERG (Kv11.1, KCNH2) [1], the inhibition at 1.1 µM came to 8%. Further, the inhibition at 11.1 µM at hERG (Kv11.1, KCNH2) [2] is 81% (active).

`Cc1cccc(-n2ncc3c(O)nc(-n4nc(C)cc4NC(=O)c4cc5ccccc5o4)nc32)c1`: at hERG (Kv11.1, KCNH2) [1], the inhibition at 1.1 µM was -3%. Besides, at hERG (Kv11.1, KCNH2) [2], the inhibition at 11.1 µM was -8% (inactive).

Consider `O=[N+]([O-])c1ccc(C=NNc2nc3ccccc3[nH]2)cc1`, for which the inhibition at 1.1 µM on hERG (Kv11.1, KCNH2) [1] amounted to 15%. Moreover, at hERG (Kv11.1, KCNH2) [2], the inhibition at 11.1 µM is 44%.

As for `O=C(NCCCN1CCC(N2CCCCC2)CC1)C1=Cc2cc(Br)ccc2OC1`, the inhibition at 1.1 µM against hERG (Kv11.1, KCNH2) [1] was 5%. Also, the inhibition at 11.1 µM on hERG (Kv11.1, KCNH2) [2] was 89% (active).

As for `O=C(NC1CCN(Cc2ccccc2)CC1)c1cc(-c2cccnc2)nc2ccc(Cl)cc12`, on hERG (Kv11.1, KCNH2) [1], the inhibition at 1.1 µM is 18%. Besides, the inhibition at 11.1 µM on hERG (Kv11.1, KCNH2) [2] was 86% (active).

Turning to `COc1ccc(C2c3ccc4ccccc4c3Oc3ncn(CCCN(C)C)c(=N)c32)cc1` (stereo not drawn), the inhibition at 1.1 µM against hERG (Kv11.1, KCNH2) [1] is 32%. Further, the inhibition at 11.1 µM on hERG (Kv11.1, KCNH2) [2] was 86% (active).

Take `CCOc1ccc(-n2cc(-c3ccccc3)c3c(SCc4cc(C)ccc4C)ncnc32)cc1`: the inhibition at 1.1 µM against hERG (Kv11.1, KCNH2) [1] is -10%. Further, the inhibition at 11.1 µM on hERG (Kv11.1, KCNH2) [2] is -16% (inactive).

With `COc1nc(Nc2ccc(C(C)C)cc2)nc(OC)n1`, the inhibition at 1.1 µM at hERG (Kv11.1, KCNH2) [1] is -2%. Besides, the inhibition at 11.1 µM on hERG (Kv11.1, KCNH2) [2] is 17% (inactive).

With `CCOc1ccc2nc(C)cc(Nc3ccc(N(C)C)cc3)c2c1`, at hERG (Kv11.1, KCNH2) [1], the inhibition at 1.1 µM turned out to be 4%. The inhibition at 11.1 µM on hERG (Kv11.1, KCNH2) [2] was 3% (inactive).

On to `Cc1cc(N2CCN(C3CCCC3)CC2)n2c(nc3ccccc32)c1C#N`, for which, on hERG (Kv11.1, KCNH2) [1], the inhibition at 1.1 µM was -3%. For the same molecule, the inhibition at 11.1 µM against hERG (Kv11.1, KCNH2) [2] is 45%.

On to `CC(=O)c1ccc(NC(=O)CSc2nc(-c3ccccc3Cl)ns2)cc1`, for which, at hERG (Kv11.1, KCNH2) [1], the inhibition at 1.1 µM is -6%. In addition, on hERG (Kv11.1, KCNH2) [2], the inhibition at 11.1 µM is 7% (inactive).

As for `c1ccc2cc3c(Nc4ccc(N5CCOCC5)cc4)ccnc3cc2c1`, the inhibition at 1.1 µM against hERG (Kv11.1, KCNH2) [1] came out at 38%. Moreover, the inhibition at 11.1 µM at hERG (Kv11.1, KCNH2) [2] was 87% (active).

With `CCN(CC)CCNc1ncnc2c1[nH]c1ccc(Br)cc12`, the inhibition at 1.1 µM at hERG (Kv11.1, KCNH2) [1] came out at 91%. Besides, the inhibition at 11.1 µM at hERG (Kv11.1, KCNH2) [2] worked out at 102%.

For `c1ccc2c(NCCCCCCNc3c4c(nc5ccccc35)CCCC4)c3c(nc2c1)CCCC3`, the inhibition at 1.1 µM on hERG (Kv11.1, KCNH2) [1] stood at 36%. The inhibition at 11.1 µM at hERG (Kv11.1, KCNH2) [2] is 102% (active).

Turning to `Cc1ccc(-c2cc(C(=O)Nc3ccc(S(=O)(=O)N4CCCCC4)cc3)[nH]n2)c(O)c1`, the inhibition at 1.1 µM at hERG (Kv11.1, KCNH2) [1] is -1%. Besides, on hERG (Kv11.1, KCNH2) [2], the inhibition at 11.1 µM was 8% (inactive).

Turning to `COc1ccc(OC)c(C2C3=C(CC(C)(C)CC3=O)N(c3ccc(Cl)c(Cl)c3)C3=C2C(=O)CC(C)(C)C3)c1`, at hERG (Kv11.1, KCNH2) [1], the inhibition at 1.1 µM was found to be 21%. Also, the inhibition at 11.1 µM against hERG (Kv11.1, KCNH2) [2] is 27%.

As for `O=C(Nc1ccccc1O)c1ccc(-c2ccc(Cl)cc2Cl)o1`, the inhibition at 1.1 µM against hERG (Kv11.1, KCNH2) [1] was 1%. The inhibition at 11.1 µM at hERG (Kv11.1, KCNH2) [2] is 3% (inactive).

As for `CCOC(=O)C1=C(C)N=c2sc(=Cc3ccccc3O)c(=O)n2C1c1ccc(OC)c2ccccc12` (stereo not drawn), on hERG (Kv11.1, KCNH2) [1], the inhibition at 1.1 µM was determined as 13%. For the same molecule, at hERG (Kv11.1, KCNH2) [2], the inhibition at 11.1 µM was 2% (inactive).

In the case of `CCOc1ccc(CN2CCN(CC(O)COc3ccc(OCC(O)CN4CCN(Cc5ccc(OCC)cc5)CC4)cc3)CC2)cc1` (stereo not drawn), the inhibition at 1.1 µM at hERG (Kv11.1, KCNH2) [1] was 70%. Further, the inhibition at 11.1 µM on hERG (Kv11.1, KCNH2) [2] was determined as 83%.

For `CCCC(c1nnnn1C1CCCCC1)N1CCN(C(=O)c2ccco2)CC1` (stereo not drawn), on hERG (Kv11.1, KCNH2) [1], the inhibition at 1.1 µM worked out at 3%. In addition, the inhibition at 11.1 µM at hERG (Kv11.1, KCNH2) [2] was 52% (active).

For the molecule `OC1CCCCC1C1(NC(=S)Nc2ccccc2)CCCCC1` (stereo not drawn), the inhibition at 1.1 µM against hERG (Kv11.1, KCNH2) [1] amounted to 26%. Further, the inhibition at 11.1 µM on hERG (Kv11.1, KCNH2) [2] was 51% (active).

For `COCCn1c(C)nc2ccccc2c1=O`, the inhibition at 1.1 µM against hERG (Kv11.1, KCNH2) [1] was 3%. Moreover, on hERG (Kv11.1, KCNH2) [2], the inhibition at 11.1 µM is 1% (inactive).

As for `Cc1cc(N2CCCC2)nc(Nc2ccc(NC(=O)CCc3ccccc3)cc2)n1`, the inhibition at 1.1 µM at hERG (Kv11.1, KCNH2) [1] was determined as 9%. Moreover, the inhibition at 11.1 µM on hERG (Kv11.1, KCNH2) [2] is 116% (active).

Regarding `CCCCC(O)(c1ccc(Cl)cc1)C(CN1CCOCC1)c1ccc(Cl)cc1` (stereo not drawn), the inhibition at 1.1 µM against hERG (Kv11.1, KCNH2) [1] was 18%. Also, the inhibition at 11.1 µM against hERG (Kv11.1, KCNH2) [2] came out at 35%.

Consider `CCOc1ccccc1CNC(=O)C1c2ccccc2C(=O)N(CC(C)C)C1c1cccs1` (stereo not drawn), for which the inhibition at 1.1 µM against hERG (Kv11.1, KCNH2) [1] was 12%. For the same molecule, on hERG (Kv11.1, KCNH2) [2], the inhibition at 11.1 µM is 84% (active).

Consider `CC1CC(C)CN(C(=O)c2ccc(Cl)cc2Cl)C1` (stereo not drawn), for which the inhibition at 1.1 µM at hERG (Kv11.1, KCNH2) [1] was -3%. Also, at hERG (Kv11.1, KCNH2) [2], the inhibition at 11.1 µM is 5% (inactive).

Regarding `Cc1ccc(C)c(-c2csc(Nc3ccc(C)c(C)c3)n2)c1`, the inhibition at 1.1 µM against hERG (Kv11.1, KCNH2) [1] came out at 57%. Besides, the inhibition at 11.1 µM at hERG (Kv11.1, KCNH2) [2] turned out to be 100%.

(Values after ChEMBL document CHEMBL3301458, “MMV Malaria Box hERG screening”.)
